Test results from ChEMBL document CHEMBL4725325, “Synthesis and biological evaluation of parthenolide derivatives with reduced toxicity as potential inhibitors of the NLRP3 inflammasome” (Bioorg Med Chem Lett, 2020).
Calls of active or inactive are those of the source. The calls are words filed in the database; no cut-off is given here.

What was measured:
[1] = biological target: NACHT, LRR and PYD domains-containing protein 3 (Mus musculus) (UniProt Q8R4B8); assay: Inhibition of NLRP3 inflammasome in mouse J774.A1 cells assessed as reduction in LPS-induced IL-1beta release at 1 to 10 uM; type: cell-based; conditions: dose microM 1-10
NACHT, LRR and PYD domains-containing protein 3 (Mus musculus), sequence (Q8R4B8 whole entry, the tested form may be a part): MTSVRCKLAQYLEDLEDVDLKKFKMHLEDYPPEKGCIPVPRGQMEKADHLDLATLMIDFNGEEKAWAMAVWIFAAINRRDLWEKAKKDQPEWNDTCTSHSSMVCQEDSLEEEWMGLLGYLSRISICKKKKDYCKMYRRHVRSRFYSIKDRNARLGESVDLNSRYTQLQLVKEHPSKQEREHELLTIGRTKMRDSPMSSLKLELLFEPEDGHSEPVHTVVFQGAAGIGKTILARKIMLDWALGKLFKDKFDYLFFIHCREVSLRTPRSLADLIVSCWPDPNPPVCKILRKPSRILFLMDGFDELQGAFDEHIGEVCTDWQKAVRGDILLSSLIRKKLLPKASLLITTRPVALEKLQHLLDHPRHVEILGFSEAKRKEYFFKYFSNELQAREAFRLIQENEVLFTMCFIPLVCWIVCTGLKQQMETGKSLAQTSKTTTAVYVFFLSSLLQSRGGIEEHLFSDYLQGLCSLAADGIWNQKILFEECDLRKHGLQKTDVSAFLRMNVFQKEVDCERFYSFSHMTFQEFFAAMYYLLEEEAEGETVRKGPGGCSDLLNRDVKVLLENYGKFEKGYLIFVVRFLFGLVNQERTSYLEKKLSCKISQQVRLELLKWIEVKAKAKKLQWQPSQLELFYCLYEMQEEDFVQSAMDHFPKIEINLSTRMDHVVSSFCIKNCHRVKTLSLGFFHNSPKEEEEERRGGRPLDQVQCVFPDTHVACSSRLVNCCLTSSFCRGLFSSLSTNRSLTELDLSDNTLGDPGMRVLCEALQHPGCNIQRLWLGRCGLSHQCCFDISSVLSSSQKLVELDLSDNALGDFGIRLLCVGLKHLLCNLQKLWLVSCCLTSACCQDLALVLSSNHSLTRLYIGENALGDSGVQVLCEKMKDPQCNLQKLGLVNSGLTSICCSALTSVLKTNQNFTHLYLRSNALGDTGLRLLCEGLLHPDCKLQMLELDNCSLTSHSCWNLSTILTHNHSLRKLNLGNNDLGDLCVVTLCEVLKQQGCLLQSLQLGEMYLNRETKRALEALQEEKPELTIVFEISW

[2] = biological target: NACHT, LRR and PYD domains-containing protein 3 (Mus musculus) (UniProt Q8R4B8); assay: Inhibition of NLRP3 inflammasome in mouse J774.A1 cells assessed as reduction in LPS-induced IL-1beta release at 10 uM in presence of PTL/MCL; type: cell-based
[3] = biological target: T1, NACHT, LRR and PYD domains-containing protein 3 (Homo sapiens, UniProt Q96P20); assay: Inhibition of NLRP3 inflammasome in human primary glial cells assessed as reduction in LPS-induced IL-1beta release at 10 uM in presence of PTL/MCL; type: cell-based; conditions: Primary neuron
T1 sequence (Q96P20 whole entry, the tested form may be a part): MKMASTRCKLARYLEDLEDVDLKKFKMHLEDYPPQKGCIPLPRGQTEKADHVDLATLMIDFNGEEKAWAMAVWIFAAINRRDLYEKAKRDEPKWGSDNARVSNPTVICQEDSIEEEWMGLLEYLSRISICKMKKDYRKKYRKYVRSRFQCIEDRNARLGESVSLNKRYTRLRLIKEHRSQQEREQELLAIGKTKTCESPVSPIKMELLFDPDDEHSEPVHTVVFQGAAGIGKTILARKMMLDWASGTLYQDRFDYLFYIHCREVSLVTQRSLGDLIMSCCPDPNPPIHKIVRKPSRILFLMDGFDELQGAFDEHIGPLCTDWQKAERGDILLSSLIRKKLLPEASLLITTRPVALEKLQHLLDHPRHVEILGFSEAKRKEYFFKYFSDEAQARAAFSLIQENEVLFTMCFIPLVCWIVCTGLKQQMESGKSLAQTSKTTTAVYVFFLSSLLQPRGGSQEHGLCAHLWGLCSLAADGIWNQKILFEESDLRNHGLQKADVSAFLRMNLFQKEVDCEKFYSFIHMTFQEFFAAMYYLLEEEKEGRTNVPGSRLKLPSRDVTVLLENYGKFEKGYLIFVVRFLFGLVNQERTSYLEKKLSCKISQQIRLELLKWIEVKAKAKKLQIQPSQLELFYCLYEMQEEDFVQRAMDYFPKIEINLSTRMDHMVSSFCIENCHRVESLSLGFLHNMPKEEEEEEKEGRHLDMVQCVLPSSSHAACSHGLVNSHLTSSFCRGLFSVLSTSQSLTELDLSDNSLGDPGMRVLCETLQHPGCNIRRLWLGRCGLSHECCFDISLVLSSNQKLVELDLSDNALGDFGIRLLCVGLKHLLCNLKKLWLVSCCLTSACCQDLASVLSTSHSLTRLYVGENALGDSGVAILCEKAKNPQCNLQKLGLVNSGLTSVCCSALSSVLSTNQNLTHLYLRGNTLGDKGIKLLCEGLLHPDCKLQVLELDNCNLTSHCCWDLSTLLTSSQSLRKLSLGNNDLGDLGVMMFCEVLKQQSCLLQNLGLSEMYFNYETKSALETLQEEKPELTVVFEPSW

[4] = biological target: NACHT, LRR and PYD domains-containing protein 3 (Mus musculus) (UniProt Q8R4B8); assay: Inhibition of NLRP3 inflammasome in mouse J774.A1 cells assessed as reduction in LPS-induced IL-1beta release at 10 uM; type: cell-based
[5] = biological target: T1, NACHT, LRR and PYD domains-containing protein 3; assay: Inhibition of NLRP3 inflammasome in human primary glial cells assessed as reduction in LPS-induced IL-1beta release at 10 uM; type: cell-based; conditions: Primary neuron
[6] = Cytotoxicity against mouse J774.A1 cells; type: cell-based; conditions: read-out: TC50 (the source's name)
[7] = Cytotoxicity against human HEK-293T cells; type: cell-based; conditions: read-out: TC50 (the source's name)
[8] = biological target: NACHT, LRR and PYD domains-containing protein 3 (Mus musculus, UniProt Q8R4B8); assay: Inhibition of NLRP3 inflammasome in mouse J774.A1 cells assessed as reduction in LPS-induced IL-1beta release; type: cell-based
NACHT, LRR and PYD domains-containing protein 3 (Mus musculus, UniProt Q8R4B8), sequence (Q8R4B8 whole entry, the tested form may be a part): as the sequence (Q8R4B8 whole entry, the tested form may be a part) above

[9] = Therapeutic index, ratio of IC50 for cytotoxicity against mouse J774.A1 cells to IC50 for antiinflammatory activity in mouse J774.A1 cells; type: toxicity, cell-based
Mus musculus [10] = assay: In vivo inhibition of NLRP3 in mouse assessed as reduction in LPS-induced IL-1beta release in peritoneal fluid at 30 mg/kg, po; type: functional, organism-based
[11] = biological target: T1, NACHT, LRR and PYD domains-containing protein 3; assay: Inhibition of NLRP3 inflammasome in human primary glial cells assessed as reduction in LPS-induced IL-1beta release; type: cell-based
Mus musculus [12] = assay: In vivo inhibition of NLRP3 in mouse assessed as reduction in LPS-induced IL-1beta release in serum at 30 mg/kg, po; type: functional, organism-based
[13] = biological target: T1, NACHT, LRR and PYD domains-containing protein 3; assay: Inhibition of NLRP3 inflammasome in human primary glial cells assessed as reduction in LPS-induced IL-1beta release at 1 to 10 uM; type: cell-based; conditions: dose microM 1-10
[14] = biological target: T1, NACHT, LRR and PYD domains-containing protein 3; assay: Inhibition of NLRP3 inflammasome activation (unknown origin) assessed as reduction in IL-1beta by Western blot analysis; conditions: dose microM 0.2-5
[15] = biological target: T1, NACHT, LRR and PYD domains-containing protein 3; assay: Inhibition of NLRP3 inflammasome activation (unknown origin) assessed as reduction in ASC level at 0.2 to 5 uM by Western blot analysis; conditions: dose microM 0.2-5
[16] = biological target: T1, NACHT, LRR and PYD domains-containing protein 3; assay: Inhibition of NLRP3 inflammasome activation (unknown origin) assessed as reduction in proIL-1beta at 0.2 to 5 uM by Western blot analysis; conditions: dose microM 0.2-5
[17] = biological target: T1, NACHT, LRR and PYD domains-containing protein 3; assay: Inhibition of NLRP3 inflammasome activation (unknown origin) assessed as reduction in caspase 1 p20 level by Western blot analysis; type: tissue-based; conditions: Primary neuron, dose microM 0.2-5
[18] = biological target: T1, NACHT, LRR and PYD domains-containing protein 3; assay: Inhibition of NLRP3 inflammasome activation (unknown origin) assessed as reduction in procaspase1 at 0.2 to 5 uM by Western blot analysis; conditions: dose microM 0.2-5

| inhibition [1] | IC50 [8] [µM] | IC50 [11] [µM] | inhibition [13] | Structure (SMILES) | CC50 [6] [µM] | CC50 [7] [µM] | selectivity ratio [9] | also measured |
| --- | --- | --- | --- | --- | --- | --- | --- | --- |
| Dose-dependent effect |  |  |  | C=C1C(=O)O[C@@H]2/C=C(\C)CC/C=C(\C)CC[C@@H]12 |  |  |  |  |
|  |  |  |  | C/C1=C\CC[C@]2(C)O[C@@H]2[C@H]2OC(=O)[C@@H](CN(C)CC(=O)Nc3nc4ccc(OC(F)(F)F)cc4s3)[C@@H]2CC1 |  |  |  | inhibition [2]: Active; inhibition [3]: Active |
|  |  |  |  | Nc1nc2ccc(OC(F)(F)F)cc2s1 |  |  |  | inhibition [4]: inactive; inhibition [2]: Active; inhibition [5]: inactive; inhibition [3]: Active |
| Dose-dependent effect | 1.4 | 1.8 | Dose-dependent effect | C=C1C(=O)O[C@@H]2[C@H]3O[C@@]3(C)CC/C=C(\C)CC[C@@H]12 | 14.3 | 29.9 | 10.2 | inhibition (Mus musculus [10]): Active; inhibition (Mus musculus [12]): Active |
|  | 0.5 | 1.7 |  | CC1=C2CC[C@@](C)(O)[C@@H]2[C@H]2OC(=O)[C@@H](CN(C)CCOc3no[n+]([O-])c3S(=O)(=O)c3ccccc3)[C@@H]2CC1 | 59.5 | 56.5 | 119 |  |
|  | 0.49 | 2.3 |  | CC1=C2CC[C@@](C)(O)[C@@H]2[C@H]2OC(=O)[C@@H](CN(C)CCCOc3no[n+]([O-])c3S(=O)(=O)c3ccccc3)[C@@H]2CC1 | 68.5 | 106 | 140 |  |
| Dose-dependent effect |  |  | Dose-dependent effect | C=C1CCC[C@]2(C)CC[C@H]3C(=C)C(=O)O[C@@H]3[C@@H]12 |  |  |  |  |
|  |  |  |  | CC1=C2CC[C@@](C)(O)[C@@H]2[C@H]2OC(=O)[C@@H](CN(C)CC(=O)Nc3nc4ccc(OC(F)(F)F)cc4s3)[C@@H]2CC1 |  |  |  | inhibition [2]: Active; inhibition [3]: Active |
|  | 0.93 | 1.9 |  | O=S(=O)(c1ccccc1)c1no[n+]([O-])c1S(=O)(=O)c1ccccc1 | 11.4 | 22.4 | 12.2 |  |
| Dose-dependent effect |  |  | Dose-dependent effect | C=C1C(=O)O[C@@H]2[C@H]3C(C)=CCC[C@]3(C)CC[C@@H]12 |  |  |  |  |
| Dose-dependent effect | 2.3 | 5.9 | Dose-dependent effect | C=C1C(=O)O[C@H]2[C@H]1CCC(C)=C1CC[C@@](C)(O)[C@@H]12 [MICHELIOLIDE] | 21.9 | 51.7 | 9.5 |  |
|  | 0.3 | 1 |  | C/C1=C\CC[C@]2(C)O[C@@H]2[C@H]2OC(=O)[C@@H](CN(C)CCOc3no[n+]([O-])c3S(=O)(=O)c3ccccc3)[C@@H]2CC1 | 24.1 | 69.8 | 80.3 | inhibition [14]: Dose-dependent effect; inhibition [15]: inactive; inhibition (Mus musculus [10]): Active; inhibition (Mus musculus [12]): Active; inhibition [16]: inactive; inhibition [17]: Dose-dependent effect; inhibition [18]: inactive |
|  | 0.4 | 2.2 |  | C/C1=C\CC[C@]2(C)O[C@@H]2[C@H]2OC(=O)[C@@H](CN(C)CCCOc3no[n+]([O-])c3S(=O)(=O)c3ccccc3)[C@@H]2CC1 | 66.6 | 166 | 166 |  |
